The values below are quoted from earlier work in patent publication US20090130187A1, “Covalent Conjugates of Cotton and Substitutes (Viscose, Modal Cotton) with Bioactive Substances Having Antiseptic, Sanitizing, Acaricidal and Insect Repellent Activity, and a Method for Obtaining Them” (priority 2006, published 2009).

This data set has as its system rat.

For `Clc1nc(Cl)nc(Cl)n1` [2,4,6-tri-chloro 1,3,5 triazine], the “LD 50 (rat)” value is 930 mg/kg.
